Measured values reported in patent publication US10633338B2, “Binding Function 3 (BF3) site compounds as therapeutics and methods for their use” (THE UNIVERSITY OF BRITISH COLUMBIA, priority 2014, dated 2020).

Molecular target: T1, androgen receptor (AR) (Homo sapiens, UniProt P10275, T878A)
T1 construct: stably transfected eGFP-expressing LNCaP human prostate cancer cells (LN-ARR2PB-eGFP) containing an androgen responsive probasin-derived promoter; endogenous in cells; host or cells: LNCaP (LN-ARR2PB-eGFP)
T1 sequence (P10275 1-920 T878A): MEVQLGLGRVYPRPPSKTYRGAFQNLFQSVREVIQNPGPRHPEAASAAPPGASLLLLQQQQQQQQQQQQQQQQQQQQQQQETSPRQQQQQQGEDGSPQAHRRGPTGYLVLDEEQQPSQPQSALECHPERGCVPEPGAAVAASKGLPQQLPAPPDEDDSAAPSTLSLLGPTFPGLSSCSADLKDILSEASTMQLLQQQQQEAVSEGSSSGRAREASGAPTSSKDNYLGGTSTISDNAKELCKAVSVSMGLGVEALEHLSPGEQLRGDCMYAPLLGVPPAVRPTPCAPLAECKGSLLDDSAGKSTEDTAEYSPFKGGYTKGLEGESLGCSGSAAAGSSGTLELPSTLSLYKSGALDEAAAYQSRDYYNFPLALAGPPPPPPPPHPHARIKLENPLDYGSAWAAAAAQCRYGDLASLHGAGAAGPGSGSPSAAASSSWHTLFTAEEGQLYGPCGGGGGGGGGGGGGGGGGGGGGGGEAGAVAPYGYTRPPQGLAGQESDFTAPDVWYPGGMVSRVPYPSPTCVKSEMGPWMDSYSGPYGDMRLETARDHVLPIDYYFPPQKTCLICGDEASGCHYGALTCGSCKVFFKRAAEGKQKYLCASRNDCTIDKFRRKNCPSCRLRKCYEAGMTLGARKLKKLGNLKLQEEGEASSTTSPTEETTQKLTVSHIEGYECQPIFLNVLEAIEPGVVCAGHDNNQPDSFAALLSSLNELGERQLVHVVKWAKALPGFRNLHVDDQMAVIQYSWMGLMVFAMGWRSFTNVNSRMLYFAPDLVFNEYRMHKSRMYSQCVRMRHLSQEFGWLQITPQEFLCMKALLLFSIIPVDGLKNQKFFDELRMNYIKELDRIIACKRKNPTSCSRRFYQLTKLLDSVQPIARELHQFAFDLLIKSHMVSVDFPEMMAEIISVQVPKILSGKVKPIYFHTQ
Experiment: eGFP cellular AR transcription assay
Type: cell-based
Details: LN-ARR2PB-eGFP LNCaP cells, 0.1 nM R1881, 3 days, 0-100 μM compound; read-out: IC50 (eGFP)
Description: After 5 days, the cells were plated into a 96-well plate (35,000 cells/well) with 0.1 nM of the synthetic androgen R1881 and increasing concentrations (0-100 μM) of compound.
After 5 days, the cells were plated into a 96-well plate (35,000 cells/well) with 0.1 nM R1881 and increasing concentrations (0-100 μM) of compound.
In this assay, the expression of eGFP is under the control of an androgen responsive probasin-derived promoter and can quantify AR transcriptional activity.

Question: How did the IC50 turn out when `CC1(C)c2ccccc2NC1c1c[nH]c2c(CO)cccc12` (stereo not drawn) [13 558] was run?
Answer: 1.6 µM

Question: How did the IC50 turn out when `c1ccc(COc2ccc3c(-c4ccc5ccccc5n4)c[nH]c3c2)cc1` [13 589] was run?
Answer: 5.3 µM

Question: Which IC50 does the source give for `c1ccc2nc(-n3ncc4ccccc43)ccc2c1` [13 572] here?
Answer: 0.7 µM

Question: How did the IC50 turn out when `FC(F)(F)c1ccc2c(-c3ccc4ccccc4n3)c[nH]c2c1` [13 580] was run?
Answer: 2.9 µM

Question: For `CC1(C)c2ccccc2NC1c1c[nH]c2cc(OCc3ccccc3)ccc12` (stereo not drawn) [13 544], which IC50 is on record?
Answer: 11.4 µM

Question: With `Oc1ccc2c(C3Nc4ccccc4C34CCCCC4)c[nH]c2c1` (stereo not drawn) [13 551] as the compound, how does the IC50 read?
Answer: 15.5 µM

Question: With `Cc1cc(-c2c[nH]c3ccccc23)nc2ccccc12` [13 547] as the compound, how does the IC50 read?
Answer: 5.6 µM

Question: For `CC1(C)c2ccccc2NC1c1c[nH]c2cnccc12` (stereo not drawn) [13 561], which IC50 is on record?
Answer: 10.7 µM

Same assay, conditions: LN-ARR2PBeGFP LNCaP cells, 0.1 nM R1881, 3 days incubation; read-out: eGFP IC50

Question: How did the IC50 turn out when `Cc1[nH]c2ccccc2c1SCc1ccccc1F` [Compound 13224] was run?
Answer: 5 µM

Question: How did the IC50 turn out when `O=C(Nc1ccc(-n2cnc3ccccc32)cc1)c1ccco1` [Compound 6054] was run?
Answer: 3.4 µM

Question: `Cc1cccn2cc(-c3c[nH]c4ccccc34)nc12` [Compound 13216] was tested. Which IC50 did it give?
Answer: 2.8 µM

Question: For `Cc1ccc(/N=C/c2c[nH]c3ccccc23)cc1C` [Compound 13310], which IC50 is on record?
Answer: 10.3 µM

Question: `O=C(Nc1nc2ccc(Br)cc2s1)c1ccccc1O` [Compound 9039] was tested. Which IC50 did it give?
Answer: > 200 µM

Question: `N#Cc1cc(F)cc2c(-c3ccc4cccc(Cl)c4n3)c[nH]c12` [Compound 13732] was tested. Which IC50 did it give?
Answer: 0.42 µM

Question: With `Oc1ccc2c(C3Nc4ccccc4C34CCCCC4)c[nH]c2c1` (stereo not drawn) [Compound 13551] as the compound, how does the IC50 read?
Answer: 15.5 µM

Question: How did the IC50 turn out when `C[C@@H]1Cc2ccccc2N1c1nc2ccccc2o1` [Compound 13261] was run?
Answer: 2.1 µM

Question: How did the IC50 turn out when `O=Nn1cc(-c2cc3ccccc3n2N=O)c2ccccc21` [Compound 13206] was run?
Answer: 1.8 µM

Question: `O=C(/C=C/c1c[nH]c2cc(Br)ccc12)c1cc2ccccc2[nH]1` [Compound 9034] was tested. Which IC50 did it give?
Answer: 20 µM

Question: `Cc1c(F)ccc2c(-c3ccc4cccc(Br)c4n3)c[nH]c12` [Compound 13787] was tested. Which IC50 did it give?
Answer: 0.19 µM

Question: `O=C(Nc1cccc(Br)c1O)c1cc2ccc(Br)cc2[nH]1` [Compound 9037] was tested. Which IC50 did it give?
Answer: 4.09 µM

Question: How did the IC50 turn out when `Brc1ccc2nc(-c3c[nH]c4ccccc34)cn2c1` [Compound 13050] was run?
Answer: 9.72 µM

Question: With `Cc1[nH]c2ccccc2c1-c1ccc2ccccc2n1` [Compound 13570] as the compound, how does the IC50 read?
Answer: 20 µM

Question: How did the IC50 turn out when `O=C(Nc1nc2cc(Br)ccc2s1)c1cc(Br)ccc1O` [Compound 9028] was run?
Answer: 10 µM

Question: For `Cc1cccc2c(-c3ccc4nccnc4n3)c[nH]c12` [Compound 13644], which IC50 is on record?
Answer: 3 µM

Question: For `FC(F)(F)c1ccc2c(-c3ccc4ccccc4n3)c[nH]c2c1` [Compound 13580], which IC50 is on record?
Answer: 2.9 µM

Question: `Brc1ccc2c(c1)CC(c1c[nH]c3ccc(Br)cc13)N2` (stereo not drawn) [Compound 13503] was tested. Which IC50 did it give?
Answer: 4.5 µM

Question: Which IC50 does the source give for `N#Cc1cccc2c(-c3ccc4cccc(Cl)c4n3)c[nH]c12` [Compound 13785] here?
Answer: 0.036 µM

Question: `Clc1ccc(Nc2nc3ccccc3[nH]2)cc1Cl` [Compound 13186] was tested. Which IC50 did it give?
Answer: 5 µM

Question: How did the IC50 turn out when `CC1(C)c2ccccc2NC1c1c[nH]c2ccc(N)cc12` (stereo not drawn) [Compound 13538] was run?
Answer: 7.7 µM

Question: `CNC(=O)c1cccc2nc(-c3c[nH]c4c(F)cccc34)ccc12` [Compound 13713] was tested. Which IC50 did it give?
Answer: 0.037 µM

Question: For `c1ccc2c(c1)N=C(c1c[nH]c3cnccc13)C21CCCCC1` [Compound 13559], which IC50 is on record?
Answer: 6.6 µM

Question: How did the IC50 turn out when `O=C(Nc1n[nH]c2cc(Br)ccc12)c1cc(Br)ccc1O` [Compound 9027] was run?
Answer: 7.72 µM

Question: With `Cc1cccc2c(-c3ccc4c(CO)cccc4n3)c[nH]c12` [Compound 13680] as the compound, how does the IC50 read?
Answer: 0.8 µM

Question: How did the IC50 turn out when `O=c1[nH]c2ccccc2n1-c1nc2ccccc2[nH]1` [Compound 13214] was run?
Answer: 2.2 µM

Question: With `S=C(c1c[nH]c2ccccc12)N1CCOCC1` [Compound 13243] as the compound, how does the IC50 read?
Answer: 3.9 µM

Question: How did the IC50 turn out when `FC(F)(F)c1cccc(/N=C/c2c[nH]c3ccccc23)c1` [Compound 13303] was run?
Answer: 4.5 µM

Question: With `Brc1ccc2[nH]c(-c3nc4ccccc4s3)cc2c1` [Compound 13540] as the compound, how does the IC50 read?
Answer: 2.5 µM

Question: `c1ccc(COc2ccc3c(C4Nc5ccccc5C45CCCCC5)c[nH]c3c2)cc1` (stereo not drawn) [Compound 13550] was tested. Which IC50 did it give?
Answer: 11.8 µM

Same assay, conditions: eGFP IC50, LN-ARR2PBeGFP LNCaP cells, 0.1 nM R1881, 3 days incubation

Question: How did the IC50 turn out when `Oc1ccc(Cn2c(-c3ccc(O)cc3)nc3ccccc32)cc1` [Compound 13029] was run?
Answer: 3.22 µM
